# Measured values taken from PubChem BioAssay (NCI).
#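 GI50 is the concentration that inhibits growth by half. TGI marks complete inhibition of growth.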
# Experiments:
# Assay in all cases: NCI tumour cell line growth inhibition, 384-well format
# SK-MEL-2 melanoma = tested on: SK-MEL-2 melanoma
# HT29 colon = tested on: HT29 colon
# HOP-62 NSCLC = tested on: HOP-62 NSCLC
# SF-539 CNS = tested on: SF-539 CNS
# OVCAR-5 ovarian = tested on: OVCAR-5 ovarian
# NCI-H322M lung = tested on: NCI-H322M lung
# HL-60(TB) leukemia = tested on: HL-60(TB) leukemia
# DU-145 prostate = tested on: DU-145 prostate
# ACHN renal = tested on: ACHN renal
# BT-549 breast = tested on: BT-549 breast
# UACC-257 melanoma = tested on: UACC-257 melanoma
# MDA-MB-435 melanoma = tested on: MDA-MB-435 melanoma
# M14 melanoma = tested on: M14 melanoma
# UACC-62 melanoma = tested on: UACC-62 melanoma
# HOP-92 NSCLC = tested on: HOP-92 NSCLC
# HCT-116 colon = tested on: HCT-116 colon
# SNB-19 CNS = tested on: SNB-19 CNS
# UO-31 renal = tested on: UO-31 renal
# NCI-H522 lung = tested on: NCI-H522 lung
# LOX IMVI melanoma = tested on: LOX IMVI melanoma
# SF-295 CNS = tested on: SF-295 CNS
# NCI/ADR-RES ovarian = tested on: NCI/ADR-RES ovarian
# T-47D breast = tested on: T-47D breast
# TK-10 renal = tested on: TK-10 renal
# OVCAR-4 ovarian = tested on: OVCAR-4 ovarian
# SN12C renal = tested on: SN12C renal
# MCF7 breast = tested on: MCF7 breast
# HS 578T breast = tested on: HS 578T breast
# PC-3 prostate = tested on: PC-3 prostate
# SK-MEL-5 melanoma = tested on: SK-MEL-5 melanoma
# MALME-3M melanoma = tested on: MALME-3M melanoma
# K-562 leukemia = tested on: K-562 leukemia
# CCRF-CEM leukemia = tested on: CCRF-CEM leukemia
# COLO 205 colon = tested on: COLO 205 colon
# KM12 colon = tested on: KM12 colon
# CAKI-1 renal = tested on: CAKI-1 renal
# RXF 393 renal = tested on: RXF 393 renal
# U251 glioblastoma = tested on: U251 glioblastoma
# SK-MEL-28 melanoma = tested on: SK-MEL-28 melanoma
# SNB-75 CNS = tested on: SNB-75 CNS
# NCI-H23 lung = tested on: NCI-H23 lung
# SF-268 CNS = tested on: SF-268 CNS
# OVCAR-3 ovarian = tested on: OVCAR-3 ovarian
# MDA-MB-468 breast = tested on: MDA-MB-468 breast
# A549 NSCLC = tested on: A549 NSCLC
# IGROV1 ovarian = tested on: IGROV1 ovarian
# HCC-2998 colon = tested on: HCC-2998 colon
# NCI-H226 lung = tested on: NCI-H226 lung
# MDA-MB-231 breast = tested on: MDA-MB-231 breast
# NCI-H460 NSCLC = tested on: NCI-H460 NSCLC
# 786-0 renal = tested on: 786-0 renal
# A498 renal = tested on: A498 renal
# SW-620 colon = tested on: SW-620 colon
# MOLT-4 leukemia = tested on: MOLT-4 leukemia
# SR leukemia = tested on: SR leukemia
# RPMI-8226 leukemia = tested on: RPMI-8226 leukemia
# HCT-15 colon = tested on: HCT-15 colon
# SK-OV-3 ovarian = tested on: SK-OV-3 ovarian
compound,measurement,setting,value
COc1cccc(Nc2ncnn3ccc(CN4CC[C@@H](N)[C@H](O)C4)c23)c1,GI50,SK-MEL-2 melanoma,26.7 µM
same,TGI,SK-MEL-2 melanoma,41.5 µM
same,GI50,HT29 colon,12.8 µM
same,TGI,HT29 colon,26.4 µM
same,GI50,HOP-62 NSCLC,2.7 µM
same,TGI,HOP-62 NSCLC,30.2 µM
same,GI50,SF-539 CNS,1.55 µM
same,TGI,SF-539 CNS,13.1 µM
same,GI50,OVCAR-5 ovarian,0.686 µM
same,TGI,OVCAR-5 ovarian,43.9 µM
same,GI50,NCI-H322M lung,0.0313 µM
same,TGI,NCI-H322M lung,0.941 µM
same,GI50,HL-60(TB) leukemia,17.6 µM
same,TGI,HL-60(TB) leukemia,31.5 µM
same,GI50,DU-145 prostate,1.11 µM
same,TGI,DU-145 prostate,28.4 µM
same,GI50,ACHN renal,0.0368 µM
same,TGI,ACHN renal,5.84 µM
same,GI50,BT-549 breast,7.04 µM
same,TGI,BT-549 breast,20.5 µM
same,GI50,UACC-257 melanoma,11.3 µM
same,TGI,UACC-257 melanoma,23.5 µM
same,GI50,MDA-MB-435 melanoma,18.2 µM
same,TGI,MDA-MB-435 melanoma,36.6 µM
same,GI50,M14 melanoma,19 µM
same,TGI,M14 melanoma,33.2 µM
same,GI50,UACC-62 melanoma,16.1 µM
same,TGI,UACC-62 melanoma,29.8 µM
same,GI50,HOP-92 NSCLC,6.62 µM
same,TGI,HOP-92 NSCLC,28.9 µM
same,GI50,HCT-116 colon,12.3 µM
same,TGI,HCT-116 colon,25.6 µM
same,GI50,SNB-19 CNS,15.4 µM
same,TGI,SNB-19 CNS,83.6 µM
same,GI50,UO-31 renal,1.1 µM
same,TGI,UO-31 renal,7.47 µM
same,TGI,NCI-H522 lung,9.99 µM
same,GI50,LOX IMVI melanoma,7.68 µM
same,TGI,LOX IMVI melanoma,20.4 µM
same,GI50,SF-295 CNS,13.9 µM
same,TGI,SF-295 CNS,30.9 µM
same,GI50,NCI/ADR-RES ovarian,11.2 µM
same,TGI,NCI/ADR-RES ovarian,27.6 µM
same,GI50,T-47D breast,15.8 µM
same,TGI,T-47D breast,30.2 µM
same,GI50,TK-10 renal,0.0524 µM
same,TGI,TK-10 renal,1.27 µM
same,GI50,OVCAR-4 ovarian,24.8 µM
same,TGI,OVCAR-4 ovarian,> 100 µM
same,GI50,SN12C renal,0.18 µM
same,TGI,SN12C renal,12 µM
same,GI50,MCF7 breast,13.9 µM
same,TGI,MCF7 breast,27.4 µM
same,GI50,HS 578T breast,1.49 µM
same,TGI,HS 578T breast,6.24 µM
same,GI50,PC-3 prostate,13.3 µM
same,TGI,PC-3 prostate,87.7 µM
same,GI50,SK-MEL-5 melanoma,15.6 µM
same,TGI,SK-MEL-5 melanoma,29 µM
same,GI50,MALME-3M melanoma,12.8 µM
same,TGI,MALME-3M melanoma,25.5 µM
same,GI50,K-562 leukemia,0.0847 µM
same,TGI,K-562 leukemia,0.228 µM
same,GI50,CCRF-CEM leukemia,14.7 µM
same,TGI,CCRF-CEM leukemia,28 µM
same,GI50,COLO 205 colon,14.8 µM
same,TGI,COLO 205 colon,28.2 µM
same,GI50,KM12 colon,3.54 µM
same,TGI,KM12 colon,15.7 µM
same,GI50,CAKI-1 renal,0.295 µM
same,TGI,CAKI-1 renal,7.12 µM
same,GI50,RXF 393 renal,0.435 µM
same,TGI,RXF 393 renal,3.21 µM
same,GI50,U251 glioblastoma,12.9 µM
same,TGI,U251 glioblastoma,26.4 µM
same,GI50,SK-MEL-28 melanoma,18.3 µM
same,TGI,SK-MEL-28 melanoma,32.4 µM
same,GI50,SNB-75 CNS,0.247 µM
same,TGI,SNB-75 CNS,1.37 µM
same,GI50,NCI-H23 lung,2.42 µM
same,TGI,NCI-H23 lung,16.8 µM
same,GI50,SF-268 CNS,4.4 µM
same,TGI,SF-268 CNS,70.3 µM
same,GI50,OVCAR-3 ovarian,0.0815 µM
same,TGI,OVCAR-3 ovarian,21.8 µM
same,GI50,MDA-MB-468 breast,0.0266 µM
same,TGI,MDA-MB-468 breast,0.203 µM
same,GI50,A549 NSCLC,0.902 µM
same,TGI,A549 NSCLC,14.4 µM
same,TGI,IGROV1 ovarian,0.512 µM
same,GI50,HCC-2998 colon,12.5 µM
same,TGI,HCC-2998 colon,25.5 µM
same,GI50,NCI-H226 lung,1.97 µM
same,TGI,NCI-H226 lung,12.4 µM
same,GI50,MDA-MB-231 breast,1.99 µM
same,TGI,MDA-MB-231 breast,25.4 µM
same,GI50,NCI-H460 NSCLC,11.3 µM
same,TGI,NCI-H460 NSCLC,24.3 µM
same,GI50,786-0 renal,0.989 µM
same,TGI,786-0 renal,14.4 µM
same,GI50,A498 renal,1.3 µM
same,TGI,A498 renal,9 µM
same,GI50,SW-620 colon,17.5 µM
same,TGI,SW-620 colon,32.5 µM
same,GI50,MOLT-4 leukemia,0.8 µM
same,TGI,MOLT-4 leukemia,13.9 µM
same,GI50,SR leukemia,12.5 µM
same,TGI,SR leukemia,25.2 µM
same,GI50,RPMI-8226 leukemia,16.4 µM
same,TGI,RPMI-8226 leukemia,30.2 µM
same,GI50,HCT-15 colon,2.32 µM
same,TGI,HCT-15 colon,32.7 µM
same,GI50,SK-OV-3 ovarian,0.0333 µM
same,TGI,SK-OV-3 ovarian,0.607 µM
